pIC50: −log10 of the molar value. Like-named read-outs stand apart in the source and are kept apart here.
Experiments:
[1] = test system: oedema induced in the rats' paw by intradermic injection of carrageenin; assay: carrageenin-induced paw oedema (method of Winter), antiinflammatory activity; assay type: in vivo; conditions: Rattus norvegicus, po, orally, read-out: effective dose ED50, antiedemigenic (antiinflammatory) activity
[2] = test system: writhings caused by 2-phenylparabenzoquinone in mice; assay: writhing test (method of Siegmund), 2-phenylparabenzoquinone, analgesic activity; assay type: in vivo, Swiss mice; conditions: for Contorsions % (change vs controls) / No. Contorsions: orally at ED50: biphenylylacetic acid 12, Ia 32 mg/kg
Description: The analgesic activity has been studied according to the method described by Siegmund (E. Siegmund et al, Proc. Soc. Exptl. Biol. Med., 95, 729 (1957)), according to which the algogenic stimulus consists of the intraperitoneal injection of 2-phenylparabenzoquinone and the algesia manifests itself in repeated abdominal contractions with an extension of the rear limbs and contorsions of the body ("writhing test").

[3] = test system: protective activity in the hot plate test; assay: hot plate test, central analgesic activity; assay type: in vivo; conditions: up to 200 mg/kg^-1 orally, mice
[4] = test system: Hyperthermia caused by brewer's yeast in rats; assay: brewer's yeast hyperthermia (method of C. Winter), antipyretic activity; assay type: in vivo
Description: The antipyretic activity has been studied according to the method of C. Winter, Toxicol. and Appl. Pharmacol., 5, 247 (1963), in rats, by determining the ability of the substance to reduce the increase of body temperature caused by the subcutaneous administration of brewer's yeast.

[5] = test system: platelet aggregation induced by arachidonic acid; assay: platelet aggregation induced by arachidonic acid in vitro (method of Born); assay type: cell-based, guinea pigs; conditions: guinea pig platelet-enriched plasma
Experimental: The activity of compound Ia on the metabolism of arachidonic acid has been studied in virto according to the method described by B. Fjalland, J. Pharm. Pharmacol., 26, 448 (1974). In these tests the compound being examined is capable of inhibiting the synthesis of prostaglandin and thromboxane caused by arachidonic acid (AA) incubated with lung tissue of guinea pigs (IC50 =0.05 mM). The activity on the platelet aggregation induced by arachidonic acid has been determined in vitro on plasma enriched with platelets of guinea pigs according to the method described by G. V. R. Born, Nature 194, 927 (1962).

[6] = test system: aggregating action of arachidonic acid; assay: ex vivo study of aggregating action of arachidonic acid after oral administration; assay type: in vivo; conditions: guinea pigs, oral dose equal to antiinflammatory ED50
[7] = test system: Salmonella thyphimurium TA 1535; TA 1538; TA 100; TA 98; assay: Ames test, mutagenic action; assay type: cell-based; conditions: with and without metabolic activation, up to 5000 μg per plate
[8] = acute toxicity (DL50); conditions: mouse, in vivo
Description: Finally, the following values of DL50 have been determined in mice for compound Ia: […]

[9] = in vivo; conditions: rat, po
[10] = gastrolesive action after single doses; conditions: rat, in vivo

## COc1ccccc1OCC(O)COC(=O)Cc1ccc(-c2ccccc2)cc1 (centres unmarked) [Compound Ia, 1-Biphenylylacetoxy-3-(2-methoxyphenoxy)-propan-2-ol]
[1]
  ED50: 22.5 mg/kg
[2]; 32 mg/kg orally, mice
  onset of analgesic activity after administration: 15 min
[2]; 5 minutes
  Contorsions % (change vs controls): -28%
  No. Contorsions: 33.1 ± 4.1
[2]; 15 minutes
  Contorsions % (change vs controls): -33%
  No. Contorsions: 35.1 ± 3.4
[2]; 30 minutes
  Contorsions % (change vs controls): -54%
  No. Contorsions: 22.7 ± 2.4
[2]; 1 hour
  Contorsions % (change vs controls): -47%
  No. Contorsions: 26.8 ± 3.3
[2]; 2 hours
  Contorsions % (change vs controls): -46%
  No. Contorsions: 25.4 ± 3.8
[2]; 3 hours
  Contorsions % (change vs controls): -44%
  No. Contorsions: 27.6 ± 3.4
[2]; 4 hours
  Contorsions % (change vs controls): -31%
  No. Contorsions: 33.5 ± 3.6
[2]; 5 hours
  Contorsions % (change vs controls): -1%
  No. Contorsions: 45.0 ± 3.2
[2]; Mus musculus, po, mice, orally, read-out: ED50, analgesic activity (writhing test)
  ED50: 32 mg/kg
[3]
  protective activity in the hot plate test (central analgesic activity): has not shown any protective activity
[4]; 6 mg/kg os, 1 h
  Temperature after administration of the substance, t: 38.01±0.07 °C
  Temperature change Δt after administration of the substance: -0.63 °C
[4]; 6 mg/kg os, 2 h
  Temperature after administration of the substance, t: 37.71±0.09 °C
  Temperature change Δt after administration of the substance: -0.75 °C
[4]; 6 mg/kg os, 3 h
  P/S, ratio of protected animals with respect to total screened animals: 1/10
  Temperature after administration of the substance, t: 37.70 °C
  Temperature change Δt after administration of the substance: -0.69 °C
[4]; 6 mg/kg os, 4 h
  Temperature after administration of the substance, t: 37.85±0.14 °C
  Temperature change Δt after administration of the substance: -0.45 °C
[4]; 6 mg/kg os, 5 h
  Temperature after administration of the substance, t: 38.07±0.15 °C
  Temperature change Δt after administration of the substance: -0.19 °C
[4]; 6 mg/kg os, 6 h
  Temperature after administration of the substance, t: 38.10 °C
  Temperature change Δt after administration of the substance: -0.14 °C
[4]; 12 mg/kg os, 1 h
  Temperature after administration of the substance, t: 37.81±0.06 °C
  Temperature change Δt after administration of the substance: -0.83 °C
[4]; 12 mg/kg os, 2 h
  Temperature after administration of the substance, t: 37.40±0.05 °C
  Temperature change Δt after administration of the substance: -1.06 °C
[4]; 12 mg/kg os, 3 h
  P/S, ratio of protected animals with respect to total screened animals: 4/10
  Temperature after administration of the substance, t: 37.32±0.08 °C
  Temperature change Δt after administration of the substance: -1.07 °C
[4]; 12 mg/kg os, 4 h
  Temperature after administration of the substance, t: 37.41±0.07 °C
  Temperature change Δt after administration of the substance: -0.89 °C
[4]; 12 mg/kg os, 5 h
  Temperature after administration of the substance, t: 37.66±0.09 °C
  Temperature change Δt after administration of the substance: -0.50 °C
[4]; 12 mg/kg os, 6 h
  Temperature after administration of the substance, t: 37.88±0.07 °C
  Temperature change Δt after administration of the substance: -0.36 °C
[4]; 24 mg/kg os, 1 h
  Temperature after administration of the substance, t: 37.66±0.05 °C
  Temperature change Δt after administration of the substance: -0.98 °C
[4]; 24 mg/kg os, 2 h
  Temperature after administration of the substance, t: 37.31±0.05 °C
  Temperature change Δt after administration of the substance: -1.15 °C
[4]; 24 mg/kg os, 3 h
  P/S, ratio of protected animals with respect to total screened animals: 8/10
  Temperature after administration of the substance, t: 37.13±0.06 °C
  Temperature change Δt after administration of the substance: -1.26 °C
[4]; 24 mg/kg os, 4 h
  Temperature after administration of the substance, t: 37.16±0.06 °C
  Temperature change Δt after administration of the substance: -1.14 °C
[4]; 24 mg/kg os, 5 h
  Temperature after administration of the substance, t: 37.34±0.05 °C
  Temperature change Δt after administration of the substance: -0.92 °C
[4]; 24 mg/kg os, 6 h
  Temperature after administration of the substance, t: 37.55±0.06 °C
  Temperature change Δt after administration of the substance: -0.69 °C
[4]; Rattus norvegicus, po, rats, orally, read-out: ED50, antipyretic activity
  ED50: 14 mg/kg
[4]; rats, orally
  duration of antipyretic activity: continues after the sixth hour
  onset of antipyretic activity after the treatment: within one hour after the treatment
[5]; Cavia porcellus, read-out: IC50, anti aggregating activity
  pIC50: 3.91
[5]
  anti aggregating activity, concentration dependence: proportional to the concentration used
[6]
  duration of decrease in aggregating action of arachidonic acid: remains up to the fifth hour
  start of decrease in aggregating action of arachidonic acid after administration: starts three hours after the administration
[7]
  mutagenic action (Ames test): has not shown any mutagenic action
[8]; ip, read-out: DL50 ip
  LD50: 260 mg/kg
[8]; po, read-out: DL50 orally
  LD50: 3330 mg/kg
[9]
  TD50: 61.7 mg/kg
[10]
  selectivity ratio: 2 to 4

Reference: US4570013A, “Biphenylylalkanoic acid derivatives, methods of preparation and pharmaceutical compositions therefrom” (Dr. L. Zambeletti S.p.A., priority 1983, dated 1986)
